According to patent US20050113371A1, “Antifungal agent for topical use” (priority 2002, published 2005):
Structures can show the parent of a compound that is named as a salt. Where two headings read alike, the source gives them in different places.

Key:
[1] = mice, cited from earlier work
[2] = rabbit, in vivo; cited from earlier work
[3] = male and female rabbits, percutaneous; cited from earlier work
[4] = in vivo; cited from earlier work
Candida albicans [5] = assay: Antifungal activity on Sabouraud agar medium, MIC and FIC index (Test Examples 1 and 2); assay type: cell-based; conditions: cultured 2 days
Description: (§1) Amorolfine hydrochloride and each specimen (hereinafter referred to as “medicine”) at a mass ratio of 1:1 were dissolved in dimethyl sulfoxide (DMSO). Two-fold dilution series were prepared with DMSO. In the determination of the antifungal activity, the medicine and the medium were mixed together at a ratio of 1:99.
Sabouraud agar medium (Eiken) was used as a susceptibility determination medium. A microbe suspension containing 10^6 spores/mL of Candida albicans or about 10^6 conidia/mL of ringworm fungus was prepared. 5 μl of the suspension was inoculated on the Sabouraud agar medium containing the medicine with a micro-planter (a product of Sakuma Seisakusho). Candida albicans was cultured for 2 days and the tinea was cultured for 7 days.
The effect obtained by the combination was judged on the basis of the following standards (FIC index): • >2: antagonism • 2>and 1<: additive action • 1>: potentiation
(1) Amorolfine hydrochloride and each specimen (hereinafter referred to as “medicine”) at a mass ratio of 100:1 to 1:100 were dissolved in dimethyl sulfoxide (DMSO). Two-fold dilution series were prepared with DMSO. In the determination of the antifungal activity, the medicine and the medium were mixed together at a ratio of 1:99.
(2) Amorolfine hydrochloride and each specimen (hereinafter referred to as “medicine”) at a mass ratio of 1:3 to 3:1 were dissolved in dimethyl sulfoxide (DMSO). Two-fold dilution series were prepared with DMSO. In the determination of the antifungal activity, the medicine and the medium were mixed together at a ratio of 1:99.
Sabouraud agar medium (Eiken) was used as a susceptibility determination medium. A microbe suspension containing 10^6 spores/mL of Candida albicans or about 10^6 conidia/mL of each of two kinds of ringworm fungus was prepared. 5 μl of the suspension was inoculated on the Sabouraud agar medium with a micro-planter (a product of Sakuma Seisakusho). Candida albicans was cultured for 2 days and the Tinea fungus was cultured for 7 days.

[6] = rats, cited from earlier work
[7] = system: Trichophyton mentagrophytes TIMM 1189; assay: Tinea infection model of guinea pigs, culture test (Test Example 3); assay type: in vivo; conditions: 0.75 mass % in polyethylene glycol 400 (combination 1:2), 0.1 mL once a day for 5 days from 3 days after inoculation; culture on 5th day after last application; 10 loci
Description: Amorolfine hydrochloride and each specimen (hereinafter referred to as “medicine”) at a mass ratio of 1:2 were dissolved in polyethylene glycol 400 to obtain a final concentration of 0.75% mass ratio. Each of amorolfine hydrochloride and the medicines was separately dissolved in polyethylene glycol 400 to obtain solutions having the final concentration of 0.75 mass %.
Male Hartley guinea pigs (Japan SLC Co., Ltd.; 6 weeks) were used. In the course of the test, they were kept separately from one another in an isolator (Negative rack, CLEA JAPAN, Inc.). They could freely have a solid food (G standard, Nihon Nosan Kogyo KK) and water.
Trichophyton mentagrophytes TIMM 1189 was cultured on slant Sabouraud glucose agar medium at 27° C. for 14 days. Then, sterilized saline containing 0.05% of Tween 80 was added thereto to obtain conidia. The resultant suspension was filtered through a cell strainer (FALCON Co., Ltd.) to remove large mycelian masses. The number of conidia was counted with hemocytometer. The conidia were diluted to 4×10^7/mL with sterilized saline containing 0.05% of Tween 80 to obtain the conidial suspension for inoculation.
The back of each guinea pig was shaved. Then, a circular inoculation part having a diameter of 2 cm was positioned on both sides of the spinal column. A gummed tape was applied thereto and then peeled. These steps was repeated three times, whereby the hair was pulled out of the skin in both parts and, at the same time, the top of the corneous layer of the skin was peeled off. The remaining hair was completely removed with tweezers. […]
When at least one of the 10 small pieces taken from one inoculated locus of the skin was the positive after the culture, the inoculated locus was judged to be positive. The ratio of positive loci after culture was calculated from the number of the cultured positive pieces in the total 10 inoculated loci in each experiment group.
The number of the cultured positive small pieces in the inoculated portion was scored as will be described below to determine the infection. […]

Candida albicans [8] = conditions: cited from earlier work
Trichophyton rubrum = assay: Antifungal activity on Sabouraud agar medium, MIC and FIC index (Test Examples 1 and 2); assay type: cell-based; conditions: cultured 7 days
Description: as §1
(§2) Sabouraud agar medium (Eiken) was used as a susceptibility determination medium. A microbe suspension containing 10^6 spores/mL of Candida albicans or about 10^6 conidia/mL of ringworm fungus was prepared. 5 μl of the suspension was inoculated on the Sabouraud agar medium containing the medicine with a micro-planter (a product of Sakuma Seisakusho). Candida albicans was cultured for 2 days and the tinea was cultured for 7 days. […]

[9] = system: Trichophyton mentagrophytes; assay: as above; assay type: cell-based; conditions: cultured 7 days
Description: as §1, §2

[10] = system: Trichophyton mentagrophytes; conditions: at a low concentration; cited from earlier work
[11] = Test Example 1, amorolfine hydrochloride + medicine at mass ratio 1:1

For `CN(C/C=C/C#CC(C)(C)C)Cc1cccc2ccccc12` [terbinafine hydrochloride, (E)-N-(6,6-dimethyl-2-hepten-4-ynyl)-N-methyl-1-naphthalenemethylamine hydrochloride], the LD50 ([1]; intravenous injection, female) is given as 377 mg/kg, the LD50 ([1]; intravenous injection, male) is given as 410 mg/kg and the LD50 ([1]; oral, female) is given as over 4000 mg/kg. The LD50 ([1]; oral, male) was 3570 mg/kg, the LD50 ([1]; subcutaneous, male and female) was over 2000 mg/kg and the localized irritation [2] was “a weak irritation or a light cumulative irritation”. The LD50 [3] was over 1500 mg/kg, the “increase in the body weight of dams” value [4] was “suppression on the increase in the body weight of dams” and the “influence on the reproduction and the growth of the embryos” value [4] was “no influence was recognized”. The MIC (Candida albicans [5]; Candida albicans, 48 h, Test Example 2, geometric mean MIC of two strains, read-out: Minimum inhibitory concentration (MIC)) was over 8 µg/mL, the “FIC index obtained by the combination of amorolfine hydrochloride with another medicine” value (shortened to “FIC index obtained by the combination”) (Candida albicans [5]; [11]) was 0.27 and the “Minimum inhibitory concentration (MIC)” value (Candida albicans [5]; Test Example 2, geometric mean MIC of two strains, listed as T, hydrochloride) was over 8.0 µg/mL. For the same compound, the LD50 ([6]; intravenous injection, female) was 206 mg/kg, the LD50 ([6]; intravenous injection, male) was 220 mg/kg and the LD50 ([6]; oral, male and female) was over 4000 mg/kg. For the same compound, the LD50 ([6]; percutaneous, male and female) was over 2000 mg/kg, the LD50 ([6]; subcutaneous, male and female) was over 2000 mg/kg and the “rate of positive loci after culture” value [7] was 100%. For the same compound, the “concentration that exhibits a fungistatic effect on the propagation of the yeast form” value (Candida albicans [8]) was “at least 1 μg/mL”, the “concentration that inhibits the conversion from yeast form to mycelial form” value (Candida albicans [8]) was “at least 0.098 μg/mL” and the “FIC index obtained by the combination” value (Trichophyton rubrum; [11]) was 0.75. For the same compound, the MIC (Trichophyton rubrum; Trichophyton rubrum, 168 h, Test Example 2, geometric mean MIC of two strains, read-out: Minimum inhibitory concentration (MIC)) was 0.004 µg/mL, the “FIC index obtained by the combination” value [9, 11] was 0.52 and the MIC ([9]; Trichophyton mentagrophytes, 168 h, Test Example 2, geometric mean MIC of two strains, read-out: Minimum inhibitory concentration (MIC)) was 0.011 µg/mL. The “effect on germinated conidium of Trichophyton mentagrophytes” value [10] was “fungicidal effect”.
